Legend:
Mtb H37Rv [1] = test: MIC90 against replicating (R) Mtb H37Rv, with or without clavulanate; type: cell-based, Mycobacterium tuberculosis; details: Table S4; for Mtb H37Rv R + CLAV (MIC90): clavulanate 4 μg/mL; for Mtb H37Rv R (MIC90): no clavulanate
Mtb H37Rv [2] = test: MIC90 against nonreplicating (NR, 4-stress) Mtb H37Rv, with or without clavulanate; type: cell-based, Mycobacterium tuberculosis; details: 4-stress nonreplicating, Table S4; for Mtb H37Rv NR + CLAV (MIC90): clavulanate 4 μg/mL; for Mtb H37Rv NR (MIC90): no clavulanate
E. coli = test: Microbial spectrum, E. coli; type: cell-based, Escherichia coli; details: clavulanate 4 μg/mL; Table S4
P. aeruginosa = test: Microbial spectrum, P. aeruginosa; type: cell-based, Pseudomonas aeruginosa; details: clavulanate 4 μg/mL; Table S4
S. aureus = test: Microbial spectrum, S. aureus; type: cell-based, Staphylococcus aureus; details: clavulanate 4 μg/mL; Table S4
C. albicans = test: Microbial spectrum, C. albicans; type: cell-based, Candida albicans; details: no clavulanate; Table S4
[3] = In vitro plasma stability, human plasma; details: 2 μM, 37 °C, time point 120 min
[4] = In vitro plasma stability, SD rat plasma; details: 2 μM, 37 °C, time point 120 min
[5] = Stability in simulated gastric fluid (SGF); details: 10 μM, pH 1.2, room temperature
[6] = In vitro plasma stability, CD-1 mouse plasma; details: 2 μM, 37 °C, time point 120 min
[7] = In vitro plasma stability, beagle dog plasma; details: 2 μM, 37 °C, time point 120 min
[8] = In vitro plasma stability, cynomolgus monkey plasma; details: 2 μM, 37 °C, time point 120 min
[9] = Stability in fasted simulated intestinal fluid (FaSSIF); details: 10 μM, pH 6.5, room temperature

SMILES	Mtb H37Rv R + CLAV (MIC90) (Mtb H37Rv [1])	Mtb H37Rv R (MIC90) (Mtb H37Rv [1])	Mtb H37Rv NR + CLAV (MIC90) (Mtb H37Rv [2])	Mtb H37Rv NR (MIC90) (Mtb H37Rv [2])	E.coli R + CLAV (MIC90) (E. coli)	P.aeruginosa R + CLAV (MIC90) (P. aeruginosa)	S.aureus R + CLAV (MIC90) (S. aureus)	C.albicans R (MIC90) (C. albicans)	Plasma stability % Remaining, Human [3]	Plasma stability % Remaining, Rat [4]	SGF Stability, % remaining, 1h ([5]; 1 h)	SGF Stability, % remaining, 24h ([5]; 24 h)	Plasma stability % Remaining, Mouse [6]	Plasma stability % Remaining, Dog [7]	Plasma stability % Remaining, Monkey [8]	FaSSIF Stability, % remaining, 6h ([9]; 6 h)	FaSSIF Stability, % remaining, 24h ([9]; 24 h)
O=C(CSc1cccc[n+]1[O-])N[C@@H]1C(=O)N2C(C(=O)O)=C(CSc3cccc[n+]3[O-])CS[C@H]12 [TBBL-0000003]	3.8 µM	4.8 µM	3.5 µM	3.2 µM	44.1 µM	> 100 µM	4.3 µM	> 100 µM									
Nc1nnc(SCC2=C(C(=O)O)N3C(=O)[C@@H](NC(=O)CSc4cc(Cl)ccc4Cl)[C@H]3SC2)s1 [TBBL-0000467]	1.5 µM	52.2 µM	> 100 µM	> 100 µM	> 100 µM	> 100 µM	< 0.1 µM	> 100 µM									
CCn1nnnc1SCC1=C(C(=O)O)N2C(=O)[C@@H](NC(=O)Cc3ccc(C4=NCCCN4)cc3)[C@H]2SC1 [TBBL-0000318]	0.8 µM	24.5 µM	> 100 µM	> 100 µM	60.5 µM	> 100 µM	2 µM	> 100 µM									
CCc1cc[n+](CC2=C(C(=O)[O-])N3C(=O)[C@@H](NC(=O)Cc4cccs4)[C@H]3SC2)cc1 [TBBL-0000418]	1.4 µM	100 µM	> 100 µM	> 100 µM	7 µM	> 100 µM	0.5 µM	> 100 µM									
O=C(Cn1cnnn1)N[C@@H]1C(=O)N2C(C(=O)O)=C(CSc3cccc[n+]3[O-])CS[C@H]12 [TBBL-0000002]	5.8 µM	5.7 µM	3 µM	4.4 µM	15.3 µM	> 100 µM	3.7 µM	> 100 µM									
O=C(Cc1cccs1)N[C@@H]1C(=O)N2C(C(=O)[O-])=C(C[n+]3ccccc3)CS[C@H]12 [TBBL-0000493]	2.2 µM	50 µM	> 100 µM	> 100 µM	37.9 µM	> 100 µM	0.8 µM	> 100 µM									
CC1=C(C(=O)O)N2C(=O)[C@@H](NC(=O)CSc3ccc(C(=N)N)cc3)[C@H]2SC1 [TBBL-0000328]	1.4 µM	64.1 µM	> 100 µM	> 100 µM	> 100 µM	> 100 µM	12.9 µM	> 100 µM									
Cn1nnnc1SCC1=C(C(=O)O)N2C(=O)[C@@H](NC(=O)Cc3ccc(C4=NCCN4)cc3)[C@H]2SC1 [TBBL-0000323]	0.8 µM	31.9 µM	> 100 µM	> 100 µM	14 µM	> 100 µM	1.8 µM	> 100 µM									
CC(=O)OCC1=C(C(=O)O)N2C(=O)[C@@H](NC(=O)CSc3nc4ccccc4s3)[C@H]2SC1 [TBBL-0000010]	3.9 µM	62 µM	> 100 µM	> 100 µM	> 100 µM	> 100 µM	0.2 µM	> 100 µM									
Cc1nnc(SCC2=C(C(=O)O)N3C(=O)[C@@H](NC(=O)Cc4sc(=O)sc4C)[C@H]3SC2)s1 [TBBL-0000330]	2.8 µM	27.6 µM	> 100 µM	> 100 µM	> 100 µM	> 100 µM	> 100 µM	> 100 µM									
CCn1nnnc1SCC1=C(C(=O)O)N2C(=O)[C@@H](NC(=O)Cc3ccc(C4=NCCN4)cc3)[C@H]2SC1 [TBBL-0000313]	0.6 µM	17.3 µM	> 100 µM	> 100 µM	11.6 µM	> 100 µM	0.8 µM	> 100 µM									
O=C(Cc1csc(=O)s1)N[C@@H]1C(=O)N2C(C(=O)O)=C(CSc3nnnn3CCO)CS[C@H]12 [TBBL-0000305]	2.1 µM	40.7 µM	> 100 µM	> 100 µM	7.5 µM	> 100 µM	> 100 µM	> 100 µM									
N=C(N)SCc1ccccc1SC1=C(C(=O)O)N2C(=O)[C@@H](NC(=O)C(N)c3ccccc3)[C@H]2CC1 (stereo partly drawn) [TBBL-0000435]	1.1 µM	90.2 µM	> 100 µM	> 100 µM	> 100 µM	> 100 µM	0.8 µM	> 100 µM									
NCCSC=CC1=C(C(=O)O)N2C(=O)C(NC(=O)CSc3ccc(Cl)c(Cl)c3)C2SC1 (stereo not drawn) [TBBL-0000306]	0.3 µM	14.4 µM	> 100 µM	> 100 µM	> 100 µM	> 100 µM	> 100 µM	> 100 µM	9.5%	23.0%	110.19%	92.52%	33.8%	16.6%	2.0%	102.19%	98.38%
Cn1nnnc1SCC1=C(C(=O)O)N2C(=O)[C@@H](NC(=O)CSc3cc(Cl)ccc3Cl)[C@H]2SC1 [TBBL-0000446]	1.5 µM	20.7 µM	> 100 µM	> 100 µM	13.3 µM	> 100 µM	< 0.1 µM	> 100 µM									
C=CCn1nnnc1SCC1=C(C(=O)O)N2C(=O)[C@@H](NC(=O)Cc3ccc(C4=NCCN4)cc3)[C@H]2SC1 [TBBL-0000312]	0.8 µM	22.1 µM	> 100 µM	> 100 µM	> 100 µM	> 100 µM	1.1 µM	> 100 µM									
O=C(Cc1cccs1)N[C@@H]1C(=O)N2C(C(=O)O)=C(C[n+]3ccccn3)CS[C@H]12 [TBBL-0000466]	1.8 µM	39 µM	> 100 µM	> 100 µM	35.1 µM	> 100 µM	0.5 µM	> 100 µM									
CC(O)Cn1nnnc1SCC1=C(C(=O)O)N2C(=O)[C@@H](NC(=O)Cc3csc(=O)s3)[C@H]2SC1 (stereo partly drawn) [TBBL-0000325]	1.4 µM	53.2 µM	> 100 µM	> 100 µM	3.8 µM	> 100 µM	0.6 µM	> 100 µM									
Cc1nnc(SCC2=C(C(=O)O)N3C(=O)[C@@H](NC(=O)CSc4cc(Cl)ccc4Cl)[C@H]3SC2)s1 [TBBL-0000415]	1.6 µM	22.9 µM	> 100 µM	> 100 µM	22.7 µM	> 100 µM	< 0.1 µM	> 100 µM									
CCCn1nnnc1SCC1=C(C(=O)O)N2C(=O)[C@@H](NC(=O)Cc3ccc(C4=NCCN4)cc3)[C@H]2SC1 [TBBL-0000311]	0.8 µM	14.1 µM	> 100 µM	> 100 µM	> 100 µM	> 100 µM	0.9 µM	> 100 µM									
CC(=O)OC(C(=O)N[C@@H]1C(=O)N2C(C(=O)O)=C(CSc3cccc[n+]3[O-])CS[C@H]12)c1ccccc1 (stereo partly drawn) [TBBL-0000007]	2.8 µM	2.3 µM	2.5 µM	2.3 µM	85.1 µM	> 100 µM	2.4 µM	> 100 µM									
